Read-outs that look alike come from different tables or passages of the source.
How the values were obtained:
Type in all cases: biochemical
CDK2/cyclinA = CDK2/cyclinA (Homo sapiens, UniProt P24941); assay: Kinome profiling CDK2/cyclinA; settings: read-out: Inhibitory activity CDK2/cyclinA; for inhibition at 0.1 µM: 100 nM
Procedure: (§1) . The kinome-wide selectivity was determined following the methods previously reported by Mohedas et al., ACS Chem Biol 2013, 8, 1291-1302 and Sanvitale et al., PLoS One 2013, 8, e62721.

ABL1 = ABL1 (Homo sapiens, UniProt P00519); assay: Kinome profiling ABL1; settings: for inhibition at 0.1 µM: 100 nM
Procedure: as §1

ROS = ROS (Homo sapiens, UniProt P08922); assay: Kinome profiling ROS; settings: read-out: Inhibitory activity ROS; for inhibition at 0.1 µM: 100 nM
Procedure: as §1

PAK3 = PAK3 (Homo sapiens, UniProt O75914); assay: Kinome profiling PAK3; settings: read-out: Inhibitory activity PAK3; for inhibition at 0.1 µM: 100 nM
Procedure: as §1

CLK2 = CLK2 (Homo sapiens, UniProt P49760); assay: Kinome profiling CLK2; settings: read-out: Inhibitory activity CLK2; for inhibition at 0.1 µM: 100 nM
Procedure: as §1

CDK2/cyclinE = CDK2/cyclinE (Homo sapiens, UniProt P24941); assay: Kinome profiling CDK2/cyclinE; settings: read-out: Inhibitory activity CDK2/cyclinE; for inhibition at 0.1 µM: 100 nM
Procedure: as §1

PI3-K-δ = PI3-K-δ (Homo sapiens, UniProt O00329); assay: Kinome profiling PI3-K-δ; settings: read-out: Inhibitory activity PI3-K-δ; for inhibition at 0.1 µM: 100 nM
Procedure: as §1

DAPK1 = DAPK1 (Homo sapiens, UniProt P53355); assay: Kinome profiling DAPK1; settings: read-out: Inhibitory activity DAPK1; for inhibition at 0.1 µM: 100 nM
Procedure: as §1

MAP4K4 = MAP4K4 (Homo sapiens, UniProt O95819); assay: Kinome profiling MAP4K4; settings: for inhibition at 0.1 µM: 100 nM
Procedure: as §1

PASK = PASK (Homo sapiens, UniProt Q96RG2); assay: Kinome profiling PASK; settings: read-out: Inhibitory activity PASK; for inhibition at 0.1 µM: 100 nM
Procedure: as §1

AKT2 = AKT2 (Homo sapiens, UniProt P31751); assay: Kinome profiling AKT2; settings: read-out: Inhibitory activity AKT2; for inhibition at 0.1 µM: 100 nM
Procedure: as §1

PAK1 = PAK1 (Homo sapiens, UniProt Q13153); assay: Kinome profiling PAK1; settings: read-out: Inhibitory activity PAK1; for inhibition at 0.1 µM: 100 nM
Procedure: as §1

CAMK4 = target: T1, CAMK4 (Homo sapiens, UniProt Q16566); assay: Kinome profiling CAMK4; settings: read-out: Inhibitory activity CAMK4; for inhibition at 0.1 µM: 100 nM
T1 sequence (Q16566 1-473): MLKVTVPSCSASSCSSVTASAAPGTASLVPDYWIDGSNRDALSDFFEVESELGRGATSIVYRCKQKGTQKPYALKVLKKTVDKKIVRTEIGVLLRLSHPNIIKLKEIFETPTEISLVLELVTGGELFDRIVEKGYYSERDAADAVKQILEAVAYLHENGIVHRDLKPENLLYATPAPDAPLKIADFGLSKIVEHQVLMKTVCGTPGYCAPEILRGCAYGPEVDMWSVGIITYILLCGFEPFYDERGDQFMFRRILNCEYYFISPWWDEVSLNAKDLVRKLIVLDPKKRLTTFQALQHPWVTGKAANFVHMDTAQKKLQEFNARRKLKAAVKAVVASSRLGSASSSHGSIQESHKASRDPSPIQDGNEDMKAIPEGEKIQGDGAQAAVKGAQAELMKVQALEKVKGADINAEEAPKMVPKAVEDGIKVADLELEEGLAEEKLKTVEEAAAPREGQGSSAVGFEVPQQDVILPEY
Procedure: as §1

TXK = target: T2, TXK (Homo sapiens, UniProt P42681); assay: Kinome profiling TXK; settings: read-out: Inhibitory activity TXK; for inhibition at 0.1 µM: 100 nM
T2 sequence (P42681 1-527): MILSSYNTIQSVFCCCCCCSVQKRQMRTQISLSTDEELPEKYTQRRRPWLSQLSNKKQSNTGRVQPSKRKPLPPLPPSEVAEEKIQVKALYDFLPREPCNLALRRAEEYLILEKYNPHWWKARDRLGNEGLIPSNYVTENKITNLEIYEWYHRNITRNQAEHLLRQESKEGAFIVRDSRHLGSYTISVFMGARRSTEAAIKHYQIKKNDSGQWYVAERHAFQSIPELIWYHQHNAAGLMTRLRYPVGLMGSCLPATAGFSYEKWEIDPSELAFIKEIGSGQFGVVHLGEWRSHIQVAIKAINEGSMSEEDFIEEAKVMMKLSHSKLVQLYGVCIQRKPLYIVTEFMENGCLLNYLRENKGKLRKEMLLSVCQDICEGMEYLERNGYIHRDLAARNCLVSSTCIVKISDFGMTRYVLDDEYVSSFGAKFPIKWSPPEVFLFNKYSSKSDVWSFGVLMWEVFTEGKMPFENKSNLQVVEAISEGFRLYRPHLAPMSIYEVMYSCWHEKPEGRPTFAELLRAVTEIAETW
Procedure: as §1

[1] = read-out: Inhibitory activity ABL1
[2] = read-out: Inhibitory activity MAP4K4
[3] = Table 4, read-out: Inhibitory Activity ABL1
[4] = Table 4, read-out: Inhibitory Activity MAP4K4

Chain of DAPK1 (P53355 whole entry): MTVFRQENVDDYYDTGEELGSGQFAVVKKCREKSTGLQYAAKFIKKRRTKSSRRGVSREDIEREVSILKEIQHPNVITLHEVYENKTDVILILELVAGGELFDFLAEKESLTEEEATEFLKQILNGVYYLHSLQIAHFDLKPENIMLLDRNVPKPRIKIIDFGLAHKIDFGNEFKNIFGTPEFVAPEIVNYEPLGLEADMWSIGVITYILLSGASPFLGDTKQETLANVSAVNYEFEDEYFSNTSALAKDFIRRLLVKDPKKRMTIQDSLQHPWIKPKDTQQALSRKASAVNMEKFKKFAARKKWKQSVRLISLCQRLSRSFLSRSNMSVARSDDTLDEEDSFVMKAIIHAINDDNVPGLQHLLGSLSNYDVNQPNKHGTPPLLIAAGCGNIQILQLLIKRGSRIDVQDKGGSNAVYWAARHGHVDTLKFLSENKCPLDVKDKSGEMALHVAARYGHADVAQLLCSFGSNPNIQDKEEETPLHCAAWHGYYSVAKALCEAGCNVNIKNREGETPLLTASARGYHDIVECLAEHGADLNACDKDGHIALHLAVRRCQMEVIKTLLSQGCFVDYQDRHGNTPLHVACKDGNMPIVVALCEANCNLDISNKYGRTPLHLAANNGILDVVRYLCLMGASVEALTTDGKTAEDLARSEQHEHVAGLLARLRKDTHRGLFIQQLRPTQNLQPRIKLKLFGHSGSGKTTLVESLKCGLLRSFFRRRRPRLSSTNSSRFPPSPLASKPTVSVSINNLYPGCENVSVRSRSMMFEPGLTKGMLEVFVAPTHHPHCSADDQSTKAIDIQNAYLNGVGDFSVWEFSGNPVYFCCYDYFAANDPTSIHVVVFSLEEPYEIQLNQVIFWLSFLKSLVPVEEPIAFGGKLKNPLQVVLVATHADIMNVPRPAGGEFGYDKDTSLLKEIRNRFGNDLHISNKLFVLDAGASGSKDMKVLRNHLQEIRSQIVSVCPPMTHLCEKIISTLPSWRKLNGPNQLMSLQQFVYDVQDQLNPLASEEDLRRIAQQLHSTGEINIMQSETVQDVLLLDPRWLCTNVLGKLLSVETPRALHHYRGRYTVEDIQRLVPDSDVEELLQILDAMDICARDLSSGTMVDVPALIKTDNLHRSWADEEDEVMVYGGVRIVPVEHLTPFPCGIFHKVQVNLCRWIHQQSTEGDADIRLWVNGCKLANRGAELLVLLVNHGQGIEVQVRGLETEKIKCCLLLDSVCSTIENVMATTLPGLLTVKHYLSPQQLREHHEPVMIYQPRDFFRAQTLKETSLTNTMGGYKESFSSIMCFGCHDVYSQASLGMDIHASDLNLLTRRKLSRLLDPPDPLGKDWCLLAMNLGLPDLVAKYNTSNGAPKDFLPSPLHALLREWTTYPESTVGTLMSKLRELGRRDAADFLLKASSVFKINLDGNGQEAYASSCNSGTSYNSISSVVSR
Chain of PASK (Q96RG2 whole entry): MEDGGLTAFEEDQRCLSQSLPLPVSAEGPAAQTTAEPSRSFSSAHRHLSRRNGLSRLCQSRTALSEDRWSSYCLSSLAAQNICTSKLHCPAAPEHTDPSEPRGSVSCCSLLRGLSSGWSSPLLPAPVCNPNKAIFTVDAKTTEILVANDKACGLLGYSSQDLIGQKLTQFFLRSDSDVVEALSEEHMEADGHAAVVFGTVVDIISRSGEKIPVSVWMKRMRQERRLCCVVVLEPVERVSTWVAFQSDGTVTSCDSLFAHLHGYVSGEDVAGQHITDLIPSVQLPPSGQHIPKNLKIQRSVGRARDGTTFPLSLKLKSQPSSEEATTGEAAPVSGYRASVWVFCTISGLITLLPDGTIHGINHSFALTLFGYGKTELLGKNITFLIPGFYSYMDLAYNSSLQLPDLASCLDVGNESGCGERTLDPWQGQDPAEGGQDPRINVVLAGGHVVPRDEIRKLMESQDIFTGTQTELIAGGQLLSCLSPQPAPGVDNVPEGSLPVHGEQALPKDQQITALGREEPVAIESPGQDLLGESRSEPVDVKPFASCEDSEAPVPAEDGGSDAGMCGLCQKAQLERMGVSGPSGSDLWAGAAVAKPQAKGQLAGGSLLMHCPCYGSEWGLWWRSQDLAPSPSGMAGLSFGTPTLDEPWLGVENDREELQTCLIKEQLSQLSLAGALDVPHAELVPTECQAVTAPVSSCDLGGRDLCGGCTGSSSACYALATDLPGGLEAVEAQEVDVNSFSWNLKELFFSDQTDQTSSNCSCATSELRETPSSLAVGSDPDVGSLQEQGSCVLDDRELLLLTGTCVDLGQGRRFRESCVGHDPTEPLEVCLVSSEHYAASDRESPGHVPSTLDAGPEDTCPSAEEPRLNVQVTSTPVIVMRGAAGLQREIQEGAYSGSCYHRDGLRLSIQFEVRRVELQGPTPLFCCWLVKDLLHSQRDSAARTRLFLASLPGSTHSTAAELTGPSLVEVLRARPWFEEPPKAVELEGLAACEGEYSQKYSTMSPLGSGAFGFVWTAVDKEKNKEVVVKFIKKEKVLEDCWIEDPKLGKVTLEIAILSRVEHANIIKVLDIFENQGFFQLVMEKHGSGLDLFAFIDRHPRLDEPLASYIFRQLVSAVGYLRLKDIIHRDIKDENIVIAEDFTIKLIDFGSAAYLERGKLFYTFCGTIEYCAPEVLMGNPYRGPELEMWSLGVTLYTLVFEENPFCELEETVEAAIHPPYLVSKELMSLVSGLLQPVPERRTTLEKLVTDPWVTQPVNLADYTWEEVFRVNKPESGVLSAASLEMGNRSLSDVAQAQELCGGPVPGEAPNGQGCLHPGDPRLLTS
Chain of PAK1 (Q13153 whole entry): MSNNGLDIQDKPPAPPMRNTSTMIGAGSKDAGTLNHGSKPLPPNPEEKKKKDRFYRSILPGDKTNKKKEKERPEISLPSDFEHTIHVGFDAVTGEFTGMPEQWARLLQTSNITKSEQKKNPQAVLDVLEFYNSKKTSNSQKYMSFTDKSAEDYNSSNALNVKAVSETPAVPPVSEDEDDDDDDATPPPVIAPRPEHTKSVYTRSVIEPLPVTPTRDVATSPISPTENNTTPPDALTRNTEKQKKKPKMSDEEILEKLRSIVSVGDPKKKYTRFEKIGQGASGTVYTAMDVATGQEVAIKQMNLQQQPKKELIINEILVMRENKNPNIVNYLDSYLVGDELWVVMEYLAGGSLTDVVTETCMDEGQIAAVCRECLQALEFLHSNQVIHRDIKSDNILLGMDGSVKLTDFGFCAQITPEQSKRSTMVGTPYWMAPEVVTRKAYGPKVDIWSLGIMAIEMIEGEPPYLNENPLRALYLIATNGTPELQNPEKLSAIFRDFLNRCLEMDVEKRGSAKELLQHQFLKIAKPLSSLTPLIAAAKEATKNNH
Chain of CLK2 (P49760 whole entry): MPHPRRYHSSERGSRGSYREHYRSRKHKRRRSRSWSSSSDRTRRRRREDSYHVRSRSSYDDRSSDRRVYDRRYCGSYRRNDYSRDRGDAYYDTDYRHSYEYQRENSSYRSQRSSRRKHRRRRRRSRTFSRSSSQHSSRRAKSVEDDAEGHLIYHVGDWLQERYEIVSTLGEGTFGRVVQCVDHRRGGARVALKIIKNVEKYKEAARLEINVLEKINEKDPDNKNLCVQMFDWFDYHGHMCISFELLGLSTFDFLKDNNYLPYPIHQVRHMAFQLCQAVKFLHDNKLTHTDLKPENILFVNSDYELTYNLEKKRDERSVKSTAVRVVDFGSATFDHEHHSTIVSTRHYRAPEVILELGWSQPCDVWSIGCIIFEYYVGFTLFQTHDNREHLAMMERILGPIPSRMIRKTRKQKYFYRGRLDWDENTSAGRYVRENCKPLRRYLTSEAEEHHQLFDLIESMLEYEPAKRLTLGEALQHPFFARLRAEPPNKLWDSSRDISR
Chain of MAP4K4 (O95819 whole entry): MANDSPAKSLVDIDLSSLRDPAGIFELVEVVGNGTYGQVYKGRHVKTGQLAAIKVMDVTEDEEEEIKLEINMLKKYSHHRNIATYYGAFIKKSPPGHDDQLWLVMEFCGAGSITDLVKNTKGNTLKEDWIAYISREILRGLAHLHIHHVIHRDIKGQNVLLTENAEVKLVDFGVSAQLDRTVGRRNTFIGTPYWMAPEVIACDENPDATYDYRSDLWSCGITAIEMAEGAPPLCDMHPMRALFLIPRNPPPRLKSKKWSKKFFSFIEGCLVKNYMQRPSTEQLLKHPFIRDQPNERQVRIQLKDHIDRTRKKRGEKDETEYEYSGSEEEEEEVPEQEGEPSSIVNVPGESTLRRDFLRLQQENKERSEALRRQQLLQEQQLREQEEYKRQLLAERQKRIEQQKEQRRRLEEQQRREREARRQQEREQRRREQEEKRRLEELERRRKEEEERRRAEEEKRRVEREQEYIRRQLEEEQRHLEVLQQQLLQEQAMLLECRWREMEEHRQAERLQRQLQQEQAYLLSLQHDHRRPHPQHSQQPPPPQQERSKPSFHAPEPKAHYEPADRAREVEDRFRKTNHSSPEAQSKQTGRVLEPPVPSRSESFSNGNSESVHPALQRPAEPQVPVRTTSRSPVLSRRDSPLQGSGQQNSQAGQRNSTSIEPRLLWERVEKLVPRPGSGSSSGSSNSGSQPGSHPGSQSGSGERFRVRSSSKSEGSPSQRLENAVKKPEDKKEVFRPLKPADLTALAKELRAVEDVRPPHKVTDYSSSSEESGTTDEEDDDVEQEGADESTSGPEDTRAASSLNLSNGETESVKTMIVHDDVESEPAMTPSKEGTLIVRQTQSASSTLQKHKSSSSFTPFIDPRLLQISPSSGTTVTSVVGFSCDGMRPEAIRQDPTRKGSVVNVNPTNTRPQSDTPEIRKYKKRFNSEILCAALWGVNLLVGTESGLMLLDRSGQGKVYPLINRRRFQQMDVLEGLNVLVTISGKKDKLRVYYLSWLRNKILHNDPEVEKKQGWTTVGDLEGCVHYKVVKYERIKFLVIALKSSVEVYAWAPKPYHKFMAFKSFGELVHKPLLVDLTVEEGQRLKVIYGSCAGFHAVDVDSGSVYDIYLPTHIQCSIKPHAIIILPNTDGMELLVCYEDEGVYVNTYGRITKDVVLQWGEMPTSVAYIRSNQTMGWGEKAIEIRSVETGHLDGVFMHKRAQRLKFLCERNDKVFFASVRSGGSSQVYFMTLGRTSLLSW

| Structure (SMILES) | inhibition at 0.1 µM (CDK2/cyclinA) | inhibition at 1 µM (CDK2/cyclinA) | inhibition at 0.1 µM (ABL1; [1]) | inhibition at 1 µM (ABL1; [1]) | inhibition at 0.1 µM (ROS) | inhibition at 1 µM (ROS) | inhibition at 0.1 µM (PAK3) | inhibition at 1 µM (PAK3) | inhibition at 0.1 µM (CLK2) | inhibition at 1 µM (CLK2) | inhibition at 0.1 µM (CDK2/cyclinE) | inhibition at 1 µM (CDK2/cyclinE) | inhibition at 0.1 µM (PI3-K-δ) | inhibition at 1 µM (PI3-K-δ) | inhibition at 0.1 µM (DAPK1) | inhibition at 1 µM (DAPK1) | inhibition at 0.1 µM (MAP4K4; [2]) | inhibition at 1 µM (MAP4K4; [2]) | inhibition at 0.1 µM (PASK) | inhibition at 1 µM (PASK) | other results |
| --- | --- | --- | --- | --- | --- | --- | --- | --- | --- | --- | --- | --- | --- | --- | --- | --- | --- | --- | --- | --- | --- |
| COc1cc(-c2cc(-c3ccc(N4CCNCC4)cc3)cnc2N)cc(OC)c1OC [Compound 15, 5-(4-(piperazin-1-yl)phenyl)-3-(3,4,5-trimethoxyphenyl)pyridin-2-amine] | 1% | 2% | 77% | 84% | 1% | 7% | 1% | 1% | 1% | -1% | 1% | 2% | 3% | 7% | 1% | 0% | 77% | 90% | 2% | 1% | inhibition at 0.1 µM (AKT2): 2%; inhibition at 1 µM (AKT2): 2%; inhibition at 0.1 µM (PAK1): 0%; inhibition at 1 µM (PAK1): 6%; inhibition at 0.1 µM (CAMK4): 21%; inhibition at 1 µM (CAMK4): -1%; inhibition at 0.1 µM (TXK): 21%; inhibition at 1 µM (TXK): 66% |
| COc1cc(-c2cc(-c3ccc(N4CCNCC4)cc3)cnc2C)cc(OC)c1OC [Compound 10, 1-(4-(6-methyl-5-(3,4,5-trimethoxyphenyl)pyridin-3-yl)phenyl)piperazine] | 4% | 1% | 56% | 93% | 2% | 2% | 2% | 2% | 2% | 2% | -1% | 3% | 8% | 7% | -1% | -1% | 34% | 92% | 3% | 4% | inhibition at 0.1 µM (ABL1; [3]): 56%; inhibition at 1 µM (ABL1; [3]): 93%; inhibition at 0.1 µM (MAP4K4; [4]): 34%; inhibition at 1 µM (MAP4K4; [4]): 92%; inhibition at 0.1 µM (AKT2): -1%; inhibition at 1 µM (AKT2): -1%; inhibition at 0.1 µM (PAK1): 2%; inhibition at 1 µM (PAK1): 3%; inhibition at 0.1 µM (CAMK4): 0%; inhibition at 1 µM (CAMK4): -1%; inhibition at 0.1 µM (TXK): 12%; inhibition at 1 µM (TXK): 14% |
